Assay: Example 1: kidney biomarkers (urea nitrogen, creatinine, GFR) in short bowel syndrome patients, every four weeks for 24 weeks; also sorted by >5% change from baseline
Format: in vivo, Human
Conditions: for CREATININE (RATE BLANKED) change from baseline −5% <= and <=5%, number of patients / CREATININE (RATE BLANKED) change from baseline −5% <= and <=5%, percent of patients / GFR change from baseline <−5%, number of patients / GFR change from baseline <−5%, percent of patients / GFR change from baseline >5%, number of patients / GFR change from baseline >5%, percent of patients / GFR change from baseline −5% <= and <=5%, number of patients / GFR change from baseline −5% <= and <=5%, percent of patients / UREA NITROGEN change from baseline <−5%, number of patients / UREA NITROGEN change from baseline <−5%, percent of patients / UREA NITROGEN change from baseline >5%, number of patients / UREA NITROGEN change from baseline >5%, percent of patients / UREA NITROGEN change from baseline −5% <= and <=5%, number of patients / UREA NITROGEN change from baseline −5% <= and <=5%, percent of patients / CREATININE (RATE BLANKED) change from baseline <−5%, number of patients / CREATININE (RATE BLANKED) change from baseline <−5%, percent of patients / CREATININE (RATE BLANKED) change from baseline >5%, number of patients / CREATININE (RATE BLANKED) change from baseline >5%, percent of patients: 0.1 mg/kg/day
Experimental: Human patients with short bowel syndrome were divided into three groups: a control group (16 total individuals) to receive placebo, an experimental group (35 total individuals) to receive teduglutide at 0.05 mg/kg/day throughout the study, and an experimental group (32 total individuals) to receive teduglutide at 0.1 mg/kg/day throughout the study. Patients were treated by subcutaneous injection of placebo or the appropriate dose of teduglutide. As individuals with short bowel syndrome are likely to experience associated liver and kidney disease, known biomarkers of liver and kidney function were monitored every four weeks, for 24 weeks. The liver biomarkers tested included total bilirubin, ALT and AST and ALP. The kidney biomarkers tested included urea nitrogen, creatinine and GFR. Before administration of placebo or teduglutide, diagnostic biomarker levels were tested to establish a baseline for each individual.
To visualize the effect of GLP-2 on the levels of the diagnostic biomarkers, the average change from baseline was calculated for the placebo and teduglutide treated groups for each visit after a baseline was established. The average change from baseline of each group is depicted in FIGS. 1-7. The numerical figures for each diagnostic biomarker at each time point are depicted in Table 1.
The raw data for this sorting is reproduced in Table 2 below.

CC[C@H](C)[C@H](NC(=O)[C@H](Cc1ccccc1)NC(=O)[C@H](CC(=O)O)NC(=O)[C@H](CCCNC(=N)N)NC(=O)[C@H](C)NC(=O)[C@H](C)NC(=O)[C@H](CC(C)C)NC(=O)[C@H](CC(N)=O)NC(=O)[C@H](CC(=O)O)NC(=O)[C@H](CC(C)C)NC(=O)[C@@H](NC(=O)[C@@H](NC(=O)[C@H](CC(N)=O)NC(=O)[C@H](CCSC)NC(=O)[C@H](CCC(=O)O)NC(=O)[C@H](CC(=O)O)NC(=O)[C@H](CO)NC(=O)[C@H](Cc1ccccc1)NC(=O)[C@H](CO)NC(=O)CNC(=O)[C@H](CC(=O)O)NC(=O)CNC(=O)[C@@H](N)Cc1c[nH]cn1)[C@@H](C)O)[C@@H](C)CC)C(=O)N[C@@H](CC(N)=O)C(=O)N[C@@H](Cc1c[nH]c2ccccc12)C(=O)N[C@@H](CC(C)C)C(=O)N[C@H](C(=O)N[C@@H](CCC(N)=O)C(=O)N[C@H](C(=O)N[C@@H](CCCCN)C(=O)N[C@H](C(=O)N[C@H](C(=O)N[C@@H](CC(=O)O)C(=O)O)[C@@H](C)O)[C@@H](C)CC)[C@@H](C)O)[C@@H](C)CC [teduglutide]
CREATININE (RATE BLANKED) change from baseline −5% <= and <=5%, number of patients (week 12): 4 | CREATININE (RATE BLANKED) change from baseline −5% <= and <=5%, percent of patients (week 12): (12.5%) | GFR change from baseline <−5%, number of patients (week 12): 11 | GFR change from baseline <−5%, percent of patients (week 12): (34.4%) | GFR change from baseline >5%, number of patients (week 12): 9 | GFR change from baseline >5%, percent of patients (week 12): (28.1%) | GFR change from baseline −5% <= and <=5%, number of patients (week 12): 10 | GFR change from baseline −5% <= and <=5%, percent of patients (week 12): (31.3%) | UREA NITROGEN change from baseline <−5%, number of patients (week 12): 13 | UREA NITROGEN change from baseline <−5%, percent of patients (week 12): (40.6%) | UREA NITROGEN change from baseline >5%, number of patients (week 12): 14 | UREA NITROGEN change from baseline >5%, percent of patients (week 12): (43.8%) | UREA NITROGEN change from baseline −5% <= and <=5%, number of patients (week 12): 3 | UREA NITROGEN change from baseline −5% <= and <=5%, percent of patients (week 12): (9.4%) | CREATININE (RATE BLANKED) change from baseline <−5%, number of patients (week 16): 10 | CREATININE (RATE BLANKED) change from baseline <−5%, percent of patients (week 16): (31.3%) | CREATININE (RATE BLANKED) change from baseline >5%, number of patients (week 16): 12 | CREATININE (RATE BLANKED) change from baseline >5%, percent of patients (week 16): (37.5%) | CREATININE (RATE BLANKED) change from baseline −5% <= and <=5%, number of patients (week 16): 8 | CREATININE (RATE BLANKED) change from baseline −5% <= and <=5%, percent of patients (week 16): (25.0%) | GFR change from baseline <−5%, number of patients (week 16): 12 | GFR change from baseline <−5%, percent of patients (week 16): (37.5%) | GFR change from baseline >5%, number of patients (week 16): 12 | GFR change from baseline >5%, percent of patients (week 16): (37.5%) | GFR change from baseline −5% <= and <=5%, number of patients (week 16): 6 | GFR change from baseline −5% <= and <=5%, percent of patients (week 16): (18.8%) | UREA NITROGEN change from baseline <−5%, number of patients (week 16): 9 | UREA NITROGEN change from baseline <−5%, percent of patients (week 16): (28.1%) | UREA NITROGEN change from baseline >5%, number of patients (week 16): 9 | UREA NITROGEN change from baseline >5%, percent of patients (week 16): (28.1%) | UREA NITROGEN change from baseline −5% <= and <=5%, number of patients (week 16): 12 | UREA NITROGEN change from baseline −5% <= and <=5%, percent of patients (week 16): (37.5%) | CREATININE (RATE BLANKED) change from baseline <−5%, number of patients (week 20): 7 | CREATININE (RATE BLANKED) change from baseline <−5%, percent of patients (week 20): (21.9%) | CREATININE (RATE BLANKED) change from baseline >5%, number of patients (week 20): 13 | CREATININE (RATE BLANKED) change from baseline >5%, percent of patients (week 20): (40.6%) | CREATININE (RATE BLANKED) change from baseline −5% <= and <=5%, number of patients (week 20): 9 | CREATININE (RATE BLANKED) change from baseline −5% <= and <=5%, percent of patients (week 20): (28.1%) | GFR change from baseline <−5%, number of patients (week 20): 11 | GFR change from baseline <−5%, percent of patients (week 20): (34.4%) | GFR change from baseline >5%, number of patients (week 20): 8 | GFR change from baseline >5%, percent of patients (week 20): (25.0%) | GFR change from baseline −5% <= and <=5%, number of patients (week 20): 10 | GFR change from baseline −5% <= and <=5%, percent of patients (week 20): (31.3%) | UREA NITROGEN change from baseline <−5%, number of patients (week 20): 12 | UREA NITROGEN change from baseline <−5%, percent of patients (week 20): (37.5%) | UREA NITROGEN change from baseline >5%, number of patients (week 20): 11 | UREA NITROGEN change from baseline >5%, percent of patients (week 20): (34.4%) | UREA NITROGEN change from baseline −5% <= and <=5%, number of patients (week 20): 6 | UREA NITROGEN change from baseline −5% <= and <=5%, percent of patients (week 20): (18.8%) | CREATININE (RATE BLANKED) change from baseline <−5%, number of patients (week 24): 11 | CREATININE (RATE BLANKED) change from baseline <−5%, percent of patients (week 24): (34.4%) | CREATININE (RATE BLANKED) change from baseline >5%, number of patients (week 24): 9 | CREATININE (RATE BLANKED) change from baseline >5%, percent of patients (week 24): (28.1%) | CREATININE (RATE BLANKED) change from baseline −5% <= and <=5%, number of patients (week 24): 9 | CREATININE (RATE BLANKED) change from baseline −5% <= and <=5%, percent of patients (week 24): (28.1%) | GFR change from baseline <−5%, number of patients (week 24): 6 | GFR change from baseline <−5%, percent of patients (week 24): (18.8%) | GFR change from baseline >5%, number of patients (week 24): 14 | GFR change from baseline >5%, percent of patients (week 24): (43.8%) | GFR change from baseline −5% <= and <=5%, number of patients (week 24): 9 | GFR change from baseline −5% <= and <=5%, percent of patients (week 24): (28.1%) | UREA NITROGEN change from baseline <−5%, number of patients (week 24): 14 | UREA NITROGEN change from baseline <−5%, percent of patients (week 24): (43.8%) | UREA NITROGEN change from baseline >5%, number of patients (week 24): 13 | UREA NITROGEN change from baseline >5%, percent of patients (week 24): (40.6%) | UREA NITROGEN change from baseline −5% <= and <=5%, number of patients (week 24): 2 | UREA NITROGEN change from baseline −5% <= and <=5%, percent of patients (week 24): (6.3%) | percent of the group experiencing a decrease in GFR greater than 5% vs placebo (both groups receiving teduglutide): always less than the percent of the group receiving placebo | creatinine levels, average change versus baseline (FIG. 9) (groups receiving teduglutide, placebo increased): remained stable or decreased slightly
